Data on 13 cell lines can be found in the supplement of paper PMC10307832.

What all share (assay): relative viability (nuclei count vs DMSO), 5 days (fraction); higher = more cells survive
Compound in experiment [1]: Cn1c(=O)n(-c2ccc(C(C)(C)C#N)cc2)c2c3cc(-c4cnc5ccccc5c4)ccc3ncc21 [Dactolisib] + N=C(N)NC(=N)NCCc1ccccc1 [Phenformin] (partner 250 µM)
The essentials:
(§1)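 Dosing by pin tool came one day after lung cancer cell lines were seeded in 1536-well plates, using either one drug or a fixed anchor-drug dose plus five library-drug doses (not always all listed) in √10 steps. After 5 days, nuclei were counted on 4× images. Relative viability is treated-well nuclei count divided by vehicle-well nuclei count, and values are medians of duplicate plates.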

Compound in experiment [2]: Cn1c(=O)n(-c2ccc(C(C)(C)C#N)cc2)c2c3cc(-c4cnc5ccccc5c4)ccc3ncc21 [Dactolisib] + Cc1nc(NC(=O)N2CCC[C@H]2C(N)=O)sc1-c1ccnc(C(C)(C)C(F)(F)F)c1 [Alpelisib] (partner 2 µM)
The essentials: as §1

Compound in experiment [3]: Cn1c(=O)n(-c2ccc(C(C)(C)C#N)cc2)c2c3cc(-c4cnc5ccccc5c4)ccc3ncc21 [Dactolisib] + CC(=O)c1c(C)c2cnc(Nc3ccc(N4CCNCC4)cn3)nc2n(C2CCCC2)c1=O [Palbociclib] (partner 0.5 µM)
The essentials:
as §1

Compound in experiment [4]: Cn1c(=O)n(-c2ccc(C(C)(C)C#N)cc2)c2c3cc(-c4cnc5ccccc5c4)ccc3ncc21 [Dactolisib] + Cc1cc(Nc2cc(N3CCN(C)CC3)nc(Sc3ccc(NC(=O)C4CC4)cc3)n2)n[nH]1 [Tozasertib] (partner 0.1 µM)
The essentials: as §1

With NCI-H1792, the relative viability in experiment [1] (first compound 0.002 µM) amounted to 0.249; in experiment [1] (first compound 0.006325 µM), 0.172; in experiment [1] (first compound 0.02 µM), 0.262; in experiment [1] (first compound 0.06325 µM), 0.101; in experiment [1] (first compound 0.2 µM), 0.0814; in experiment [2] (first compound 0.002 µM), 0.783. Besides, the relative viability in experiment [2] (first compound 0.006325 µM) came out at 0.671; in experiment [2] (first compound 0.02 µM), 0.549; in experiment [2] (first compound 0.06325 µM), 0.165; in experiment [2] (first compound 0.2 µM) it was 0.125; in experiment [3] (first compound 0.002 µM), 0.676; in experiment [3] (first compound 0.006325 µM) it was 0.651. Also, the relative viability in experiment [3] (first compound 0.02 µM) stood at 0.568; in experiment [3] (first compound 0.06325 µM), 0.34; in experiment [3] (first compound 0.2 µM), 0.271.
Take NCI-H1650: the relative viability in experiment [1] (first compound 0.002 µM) was 0.355; in experiment [1] (first compound 0.006325 µM) it was 0.41; in experiment [1] (first compound 0.02 µM) it was 0.454; in experiment [1] (first compound 0.06325 µM) it was 0.267; in experiment [1] (first compound 0.2 µM), 0.232; in experiment [3] (first compound 0.002 µM) it was 0.357. Also, the relative viability was 0.348 in experiment [3] (first compound 0.006325 µM); 0.298 in experiment [3] (first compound 0.02 µM); 0.191 in experiment [3] (first compound 0.06325 µM); 0.142 in experiment [3] (first compound 0.2 µM); 0.397 in experiment [4] (first compound 0.002 µM); 0.476 in experiment [4] (first compound 0.006325 µM). Further, the results for the relative viability in experiment [4] (first compound 0.02 µM), in experiment [4] (first compound 0.06325 µM) and in experiment [4] (first compound 0.2 µM) were 0.425, 0.367 and 0.302, respectively.
On to EBC-1, for which the relative viability in experiment [2] (first compound 0.002 µM) worked out at 0.832; in experiment [2] (first compound 0.006325 µM) it was 0.742; in experiment [2] (first compound 0.02 µM), 0.58; in experiment [2] (first compound 0.06325 µM), 0.243; in experiment [2] (first compound 0.2 µM), 0.207.
In the case of NCI-H1623, the relative viability came out at 0.618 in experiment [1] (first compound 0.002 µM); 0.628 in experiment [1] (first compound 0.006325 µM); 0.561 in experiment [1] (first compound 0.02 µM); 0.585 in experiment [1] (first compound 0.06325 µM); 0.438 in experiment [1] (first compound 0.2 µM); 0.396 in experiment [4] (first compound 0.002 µM). Further, the relative viability in experiment [4] (first compound 0.006325 µM) is 0.414; in experiment [4] (first compound 0.02 µM), 0.428; in experiment [4] (first compound 0.06325 µM), 0.37; in experiment [4] (first compound 0.2 µM), 0.298.
As for NCI-H1648, the relative viability in experiment [3] (first compound 0.002 µM) is 0.284; in experiment [3] (first compound 0.006325 µM), 0.283; in experiment [3] (first compound 0.02 µM), 0.231; in experiment [3] (first compound 0.06325 µM), 0.206; in experiment [3] (first compound 0.2 µM) it was 0.215; in experiment [4] (first compound 0.002 µM) it was 0.407. Moreover, the relative viability was found to be 0.433 in experiment [4] (first compound 0.006325 µM), 0.446 in experiment [4] (first compound 0.02 µM), 0.24 in experiment [4] (first compound 0.06325 µM) and 0.218 in experiment [4] (first compound 0.2 µM).
With NCI-H522, the relative viability was determined as 0.591 in experiment [1] (first compound 0.002 µM); 0.647 in experiment [1] (first compound 0.006325 µM); 0.548 in experiment [1] (first compound 0.02 µM); 0.535 in experiment [1] (first compound 0.06325 µM); 0.631 in experiment [1] (first compound 0.2 µM); 0.924 in experiment [3] (first compound 0.002 µM). Moreover, the relative viability came out at 1 in experiment [3] (first compound 0.006325 µM); 0.99 in experiment [3] (first compound 0.02 µM); 0.754 in experiment [3] (first compound 0.06325 µM); 0.674 in experiment [3] (first compound 0.2 µM); 0.625 in experiment [4] (first compound 0.002 µM); 0.575 in experiment [4] (first compound 0.006325 µM). Besides, the relative viability is 0.542 in experiment [4] (first compound 0.02 µM), 0.521 in experiment [4] (first compound 0.06325 µM) and 0.385 in experiment [4] (first compound 0.2 µM).
As for NCI-H1563, the relative viability in experiment [1] (first compound 0.002 µM) came to 0.674; in experiment [1] (first compound 0.006325 µM) it was 0.622; in experiment [1] (first compound 0.02 µM), 0.626; in experiment [1] (first compound 0.06325 µM) it was 0.61; in experiment [1] (first compound 0.2 µM) it was 0.54; in experiment [2] (first compound 0.002 µM) it was 0.851. Moreover, the relative viability in experiment [2] (first compound 0.006325 µM) is 0.86; in experiment [2] (first compound 0.02 µM) it was 0.706; in experiment [2] (first compound 0.06325 µM), 0.605; in experiment [2] (first compound 0.2 µM), 0.588.
NCI-H1299: the relative viability was determined as 1.07 in experiment [2] (first compound 0.002 µM); 1.08 in experiment [2] (first compound 0.006325 µM); 1.1 in experiment [2] (first compound 0.02 µM); 0.829 in experiment [2] (first compound 0.06325 µM); 0.905 in experiment [2] (first compound 0.2 µM).
NCI-H2342: the relative viability in experiment [1] (first compound 0.002 µM) came to 0.492; in experiment [1] (first compound 0.006325 µM) it was 0.64; in experiment [1] (first compound 0.02 µM) it was 0.54; in experiment [1] (first compound 0.06325 µM), 0.559; in experiment [1] (first compound 0.2 µM) it was 0.525; in experiment [3] (first compound 0.002 µM), 0.556. The relative viability in experiment [3] (first compound 0.006325 µM) came out at 0.535; in experiment [3] (first compound 0.02 µM) it was 0.505; in experiment [3] (first compound 0.06325 µM), 0.454; in experiment [3] (first compound 0.2 µM), 0.466; in experiment [4] (first compound 0.002 µM), 0.475; in experiment [4] (first compound 0.006325 µM) it was 0.496. Besides, the relative viability is 0.435 in experiment [4] (first compound 0.02 µM), 0.502 in experiment [4] (first compound 0.06325 µM) and 0.362 in experiment [4] (first compound 0.2 µM).
As for A549, the relative viability in experiment [1] (first compound 0.002 µM) was determined as 0.183; in experiment [1] (first compound 0.006325 µM) it was 0.153; in experiment [1] (first compound 0.02 µM) it was 0.172; in experiment [1] (first compound 0.06325 µM), 0.103; in experiment [1] (first compound 0.2 µM), 0.0668; in experiment [2] (first compound 0.002 µM), 0.966. Moreover, the relative viability was determined as 0.715 in experiment [2] (first compound 0.006325 µM), 0.614 in experiment [2] (first compound 0.02 µM), 0.146 in experiment [2] (first compound 0.06325 µM) and 0.083 in experiment [2] (first compound 0.2 µM).
Take SW 900: the relative viability in experiment [1] (first compound 0.002 µM) stood at 0.67; in experiment [1] (first compound 0.006325 µM) it was 0.536; in experiment [1] (first compound 0.02 µM), 0.591; in experiment [1] (first compound 0.06325 µM), 0.288; in experiment [1] (first compound 0.2 µM), 0.198; in experiment [3] (first compound 0.002 µM) it was 0.683. In addition, the relative viability came out at 0.46 in experiment [3] (first compound 0.006325 µM); 0.45 in experiment [3] (first compound 0.02 µM); 0.248 in experiment [3] (first compound 0.06325 µM); 0.199 in experiment [3] (first compound 0.2 µM); 0.633 in experiment [4] (first compound 0.002 µM); 0.669 in experiment [4] (first compound 0.006325 µM). The relative viability in experiment [4] (first compound 0.02 µM) amounted to 0.511; in experiment [4] (first compound 0.06325 µM), 0.426; in experiment [4] (first compound 0.2 µM), 0.36.
For IA-LM, the relative viability came to 0.636 in experiment [2] (first compound 0.002 µM); 0.663 in experiment [2] (first compound 0.006325 µM); 0.793 in experiment [2] (first compound 0.02 µM); 0.179 in experiment [2] (first compound 0.06325 µM); 0.186 in experiment [2] (first compound 0.2 µM).
As to ChaGo-K-1, the relative viability in experiment [1] (first compound 0.002 µM) was 0.457; in experiment [1] (first compound 0.006325 µM), 0.457; in experiment [1] (first compound 0.02 µM), 0.464; in experiment [1] (first compound 0.06325 µM) it was 0.374; in experiment [1] (first compound 0.2 µM), 0.444; in experiment [3] (first compound 0.002 µM), 0.93. Also, the relative viability turned out to be 0.958 in experiment [3] (first compound 0.006325 µM); 0.88 in experiment [3] (first compound 0.02 µM); 0.84 in experiment [3] (first compound 0.06325 µM); 0.85 in experiment [3] (first compound 0.2 µM); 0.248 in experiment [4] (first compound 0.002 µM); 0.235 in experiment [4] (first compound 0.006325 µM). In addition, the relative viability in experiment [4] (first compound 0.02 µM) worked out at 0.221; in experiment [4] (first compound 0.06325 µM), 0.223; in experiment [4] (first compound 0.2 µM), 0.211.
